According to ChEMBL document CHEMBL1156245, “Structure-activity relationships for substrate-based inhibitors of human complement factor B” (J Med Chem, 2009):
One block for each compound: values may come before it. Peptide text beside a SMILES is read from it.

Key:
Complement factor B [1] = molecular target: T1, Complement factor B (Homo sapiens, UniProt P00751); assay: Inhibition of human complement factor B treated for 5 mins before addition of substrate Ac-SHLGLAR-pNA at pH 9.5 by chromogenic assay
T1 sequence (P00751 whole entry, the tested form may be a part): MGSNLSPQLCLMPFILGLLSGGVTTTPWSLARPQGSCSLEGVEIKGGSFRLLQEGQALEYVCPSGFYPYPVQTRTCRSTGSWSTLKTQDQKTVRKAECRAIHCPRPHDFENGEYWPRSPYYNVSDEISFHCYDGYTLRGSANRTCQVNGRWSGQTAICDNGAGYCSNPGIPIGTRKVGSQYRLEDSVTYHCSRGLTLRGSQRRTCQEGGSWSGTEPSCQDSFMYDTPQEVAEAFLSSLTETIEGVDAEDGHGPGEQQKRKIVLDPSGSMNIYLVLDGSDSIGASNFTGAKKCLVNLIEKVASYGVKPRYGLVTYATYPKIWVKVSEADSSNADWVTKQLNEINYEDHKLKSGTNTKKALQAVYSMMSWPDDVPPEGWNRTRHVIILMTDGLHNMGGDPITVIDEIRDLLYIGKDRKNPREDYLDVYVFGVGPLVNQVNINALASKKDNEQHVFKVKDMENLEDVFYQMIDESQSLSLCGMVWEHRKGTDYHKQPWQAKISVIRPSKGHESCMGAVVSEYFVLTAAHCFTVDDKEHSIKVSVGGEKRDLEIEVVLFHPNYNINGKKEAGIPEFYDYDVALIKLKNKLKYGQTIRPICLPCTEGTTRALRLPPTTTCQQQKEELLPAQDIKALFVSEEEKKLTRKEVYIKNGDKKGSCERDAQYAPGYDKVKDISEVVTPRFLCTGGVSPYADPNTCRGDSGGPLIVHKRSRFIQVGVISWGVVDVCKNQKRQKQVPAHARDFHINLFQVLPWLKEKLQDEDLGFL

Complement factor B [2] = molecular target: T1, Complement factor B; assay: Inhibition of human C3 convertase assessed as inhibition of C3a and C3b fragment production at pH 7.4 after 30 mins by SDS-PAGE
[3] = Solubility in water; assay type: physicochemical; settings: buffer
[4] = Metabolic stability in human serum assessed as compound remaining at 1 mM after 3 hrs by LC-MS analysis; assay type: ADME, cell-free; settings: read-out: Stability
[5] = Inhibition of cobra C3/C5 convertase assessed as inhibition of C3a and C5a fragment formation; set-up: species or system Naja naja
[6] = Inhibition of human alternative complement system-mediated membrane attack complex formation by ELISA
Complement factor B [7] = molecular target: T1, Complement factor B; assay: Inhibition of human C3 convertase assessed as inhibition of C3a and C3b fragment production at pH 7.4 after 30 mins by SDS-PAGE using 7% (w/v) polyacrylamide gel
[8] = Inhibition of alternative complement system-mediated hemolysis of rabbit erythrocytes assessed as haemoglobin release after 30 mins by UV/vis spectrophotometry; set-up: species or system Oryctolagus cuniculus
Complement factor B [9] = molecular target: T1, Complement factor B; assay: Inhibition of human complement factor B at pH 9.5 by chromogenic assay
Complement factor B [10] = molecular target: T1, Complement factor B; assay: Inhibition of human C3/C5 convertase assessed as inhibition of C3 cleavage

IC50 (Complement factor B [1]): 3 µM
Compound: Ac-LLLAR-OH

IC50 (Complement factor B [1]): 0.6 µM
IC50 (Complement factor B [2]): 50 µM
solubility [3]: Soluble
remaining at 3 h, 1000 µM [4]: 80%
Compound: Ac-RLLLAR-OH [listing 1 of 2 here]

IC50 [5]: 4 µM
Compound: N=C(N)Nc1ccc(C(=O)Oc2ccc3cc(C(=N)N)ccc3c2)cc1

IC50 [6]: 320 nM
IC50 (Complement factor B [1]): 0.25 µM
IC50 (Complement factor B [2]): 10 µM
inhibition (Complement factor B [7]): Dose-dependent effect
Compound: CC(=O)N[C@@H](CCCNC(=N)N)C(=O)N[C@@H](CC(C)C)C(=O)N[C@@H](CC(C)(C)C)C(=O)N[C@@H](CC(C)C)C(=O)N[C@@H](C)C(=O)N[C@@H](CCCNC(=N)N)C(=O)O (HELM PEPTIDE1{[ac].R.L.[CC(C)(C)C[C@H](N[*:1])C(=O)[*:2]].L.A.R}$$$$V2.0)
IC50 [8]: 9.7 µM

IC50 (Complement factor B [1]): 5 µM
Compound: CCCC[C@H](NC(=O)[C@H](Cc1cnc[nH]1)NC(=O)[C@H](CO)NC(C)=O)C(=O)N[C@@H](CC(C)C)C(=O)N[C@@H](CC(C)C)C(=O)N[C@@H](C)C(=O)N[C@@H](CCCNC(=N)N)C(=O)O (HELM PEPTIDE1{[ac].S.H.[Nle].L.L.A.R}$$$$V2.0)

IC50 [6]: 1000 nM
inhibition (Complement factor B [7]): Dose-dependent effect
Compound: Ac-RLLLAR-OH [listing 2 of 2 here]
IC50 [8]: 20.8 µM

IC50 (Complement factor B [1]): 12 µM
Compound: CC(=O)N[C@@H](CC(C)C)C(=O)N[C@@H](CC(C)C)C(=O)N[C@@H](C)C(=O)N[C@@H](CCCN=C(N)N)C(=O)O (Ac-LLAR-OH)

IC50 (Complement factor B [1]): 5 µM
Compound: CC(C)C[C@H](NC(=O)[C@H](CCC1CCCCC1)NC(=O)[C@H](CC(C)C)NC(=O)[C@H](Cc1cnc[nH]1)NC(=O)[C@@H](N)CO)C(=O)N[C@@H](C)C(=O)N[C@@H](CCCN=C(N)N)C(=O)O (HELM PEPTIDE1{S.H.L.[O=C([C@H](CCC1CCCCC1)N[*:1])[*:2]].L.A.R}$$$$V2.0)

IC50 (Complement factor B [1]): 4 µM
Compound: Ac-SHLLLAR-OH

Compound: CC(=O)N[C@@H](Cc1ccc(F)cc1)C(=O)N[C@@H](Cc1cnc[nH]1)C(=O)N[C@@H](CC(C)C)C(=O)NCC(=O)N[C@@H](CC(C)C)C(=O)N[C@@H](C)C(=O)N[C@@H](CCCN=C(N)N)C(=O)O (HELM PEPTIDE1{[ac].[O=C([C@H](Cc1ccc(F)cc1)N[*:1])[*:2]].H.L.G.L.A.R}$$$$V2.0)
IC50 (Complement factor B [1]): 13 µM

IC50 (Complement factor B [1]): 7 µM
Compound: Ac-RLLLGR-OH

IC50 (Complement factor B [1]): 3 µM
Compound: Ac-HLLLAR-OH

IC50 (Complement factor B [1]): 23 µM
Compound: Ac-FHLGLAR-OH

Compound: CC(=O)N[C@@H](CO)C(=O)N[C@@H](Cc1cnc[nH]1)C(=O)N[C@@H](CC(C)C)C(=O)NCC(=O)N[C@@H](CC(C)C)C(=O)N[C@@H](C)C(=O)N[C@@H](CCCN=C(N)N)C(=O)Nc1ccc([N+](=O)[O-])cc1 (HELM PEPTIDE1{[ac].S.H.L.G.L.A.R.[O=[N+]([O-])c1ccc(N[*:1])cc1]}$$$$V2.0)
IC50 (Complement factor B [9]): 19 µM

IC50 [6]: 21100 nM
IC50 (Complement factor B [1]): 19 µM
remaining at 3 h, 1000 µM [4]: 80%
Compound: Ac-SHLGLAR-OH
IC50 [8]: 243 µM

IC50 (Complement factor B [10]): 12 µM
Compound: CC[C@H](C)[C@H](N)C(=O)N[C@H]1CSSC[C@@H](C(=O)N[C@H](C(N)=O)[C@@H](C)O)NC(=O)[C@H](CCCN=C(N)N)NC(=O)[C@H](Cc2cnc[nH]2)NC(=O)[C@H](Cc2cnc[nH]2)NC(=O)CNC(=O)[C@H](Cc2c[nH]c3ccccc23)NC(=O)[C@H](CC(=O)O)NC(=O)[C@H](CCC(N)=O)NC(=O)[C@H](C(C)C)NC(=O)[C@H](C(C)C)NC1=O [COMPSTATIN]
